In this test the target is RIPK1 recombination protein (Homo sapiens (Human), UniProt Q13546). Nature of the test: RIPK1 kinase activity assay (ADP-Glo). Format: biochemical. As to conditions: RIPK1 kinase activity, ADP-Glo, 10 μM ATP. The gist of the method:
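GST-purified recombinant human RIPK1 (40 nM final) with 10 μM ATP in NaCl/MgCl2/BSA/CHAPS/DTT kinase buffer, 3 h at room temperature; compounds at 10 to 0.005 μM (3-fold). ADP formed measured by ADP-Glo luminescence; inhibition normalized to no-enzyme and no-inhibitor controls, IC50 by curve fit.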
Sequence of RIPK1 recombination protein (Q13546 other isoform, or with tags, fused parts or gaps): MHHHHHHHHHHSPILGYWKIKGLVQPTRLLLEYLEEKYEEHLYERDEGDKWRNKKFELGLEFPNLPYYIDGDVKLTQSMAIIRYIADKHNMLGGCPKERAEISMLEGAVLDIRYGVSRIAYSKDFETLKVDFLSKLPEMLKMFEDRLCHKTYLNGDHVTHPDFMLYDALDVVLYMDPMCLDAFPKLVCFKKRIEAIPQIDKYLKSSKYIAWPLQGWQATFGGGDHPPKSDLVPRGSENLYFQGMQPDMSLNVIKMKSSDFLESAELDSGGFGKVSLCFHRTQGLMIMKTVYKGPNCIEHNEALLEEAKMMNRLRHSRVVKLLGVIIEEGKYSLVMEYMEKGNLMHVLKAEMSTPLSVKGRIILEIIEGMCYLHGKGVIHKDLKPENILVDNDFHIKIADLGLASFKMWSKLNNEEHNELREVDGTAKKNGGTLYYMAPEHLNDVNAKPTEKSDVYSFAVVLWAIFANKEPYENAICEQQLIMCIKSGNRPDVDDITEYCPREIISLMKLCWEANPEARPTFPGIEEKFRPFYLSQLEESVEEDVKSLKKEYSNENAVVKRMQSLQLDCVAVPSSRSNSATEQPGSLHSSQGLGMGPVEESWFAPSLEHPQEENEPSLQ
For `CC(C)Cc1nc(C(=O)NC2(c3ccc(-c4cncn(C(C)C)c4=O)cc3)CC2)ncc1Cl` [Compound 22], the IC50 is 55 nM.

Consider `CC(C)n1cncc(-c2ccc(C3(NC(=O)c4nnc(Cc5ccccc5)o4)CC3)cc2)c1=O` [Compound 13], for which the IC50 is 22 nM.

`CC(C)n1cncc(-c2cc(F)c(C3(NC(=O)c4ncc5cnn(C(C)C)c5n4)CC3)c(F)c2)c1=O` [Compound 92]: the IC50 was 104 nM.

As to `Cn1cncc(-c2ccc(C3(NC(=O)c4ncc(Cc5ccccc5)o4)CC3)cc2)c1=O` [Compound 10], the IC50 was found to be 26 nM.

For the compound `CC(C)n1cncc(-c2ccc(C3(NC(=O)c4ncc5cnn(CC6CC6)c5n4)CC3)cc2F)c1=O` [Compound 73], the IC50 was 52 nM.

These data come from US20240002388A1, “PYRIMIDINONE COMPOUNDS AND USES THEREOF” (HUTCHISON MEDIPHARMA LIMITED, priority 2020, published 2024).
